Reference: the METLIN SMRT retention time set (Domingo-Almenara et al. 2019)

Assay: gradient 5% acetonitrile 3 min, to 50% in 2 min, to 85% in 15 min, held 3 min, 100 µL/min
Details: column: Zorbax Extend-C18 2.1 x 50 mm; eluents: water / acetonitrile, 0.1% formic acid
Method in brief: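 A Zorbax Extend-C18 column (2.1 × 50 mm, 1.8 μm) run at 100 μL/min with water and acetonitrile, both containing 0.1% formic acid, separated mixtures of ~100 pure standards. The HPLC was coupled to a quadrupole time-of-flight mass spectrometer operated in positive and negative ionization mode, with dead and dwell volumes of 40 μL and 900 μL. Each retention time was taken from a computationally picked adduct peak that was then manually inspected.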

RP-LC retention time [s] | Structure (SMILES)
705 | O=C(NCC1CCCO1)c1cn(-c2ccc(S(=O)(=O)N3CCCC3)cn2)cn1 (stereo unspecified)
753 | O=C([C@@H]1C[C@H](F)CN1C(=O)Nc1cccc(Br)c1)N1CCCCC1
766 | N#Cc1cnc2ccc(F)cc2c1N1CCC(C(=O)N2CCSCC2)CC1
772 | CC(C)CC(=O)Nc1ccc(-n2cnc(C(=O)NC3CCCC3)c2)nc1
640 | O=C(c1cc(C2CC2)[nH]n1)N1CCn2c(nnc2-c2ccccc2)C1
665 | CCCNC(=O)C1CCN(c2ccc(SCC(=O)Nc3cc(F)cc(F)c3)nn2)CC1
987 | CCn1cc(-c2nc(C)c(C(=O)N3CCc4ccccc4C3)s2)c2cccnc21
570 | CN1CCN(CCNC(=O)C2CCN(Cc3cn(C)c4ccc(Cl)cc34)CC2)CC1
876 | COc1ccc(CNC(=O)C2=C3CCCN3c3ccc(F)cc3S2(=O)=O)cc1
677 | CCn1nccc1C1CCCN1C(=O)c1c(Cl)cnn1C (stereo unspecified)
571 | CCNc1cc(N2CCCC(CCC(=O)N3CCCC(CN4CCCC4)C3)C2)ncn1 (stereo unspecified)
585 | COc1cc(C(C)=O)ccc1OCC(O)CN1CCN(c2ccc(C)c(Cl)c2)CC1 (stereo unspecified)
1030 | O=C(NCCC1=CCCCC1)c1ccc(-c2nccnc2N2CCCC2)cc1
900 | Cc1ccc(-n2c(=O)c3c(cc(C)n3C)n(CC(=O)Nc3ccccc3Cl)c2=O)cc1
651 | COc1ccc(Cl)c2c(=O)c3c([nH]c12)CCN(CC(=O)Nc1cccc(Cl)c1C)C3
1160 | Cc1ccc(C)c(CS(=O)(=O)N2CCc3nc(-c4ccc(F)cc4)ncc3C2)c1
904 | COc1ccc(CNC(=O)c2cn(C)nc2S(=O)(=O)N2CCC(C)CC2)cc1
654 | CC1CCCN(Cc2nc(Cn3ccn4nc(-c5ccccc5)cc4c3=O)no2)C1 (stereo unspecified)
896 | Cc1csc(-c2ccc(N3CCN(C(=O)Cc4cccc(Cl)c4)CC3)nc2)n1
750 | CC(=O)N1CCCc2cc(S(=O)(=O)CCC(=O)N3CCN(c4cccc(C)c4)C(C)C3)ccc21 (stereo unspecified)
960 | CCc1nc(-c2cc(S(=O)(=O)N3CCC(C(=O)N(CC)CC)CC3)c(C)s2)no1
627 | Cn1ccc2cc(S(=O)(=O)N3CCCC(C(=O)NCCCN4CCOCC4)C3)ccc21 (stereo unspecified)
792 | Cc1ccccc1CN1CCN(CC(=O)Nc2cccc(Cl)c2C)C(=O)C1=O
804 | O=C(CSc1nc(N2CCCCC2)nc2ccccc12)Nc1ccc(Cl)cc1
766 | CCOc1ccccc1NC(=O)Cn1nc2n(c1=O)CCCCC2
669 | Cn1c(C(N)=O)c(N2CCCC2=O)c2cc(F)ccc21
932 | CC(C)(C)C(=O)N1CCCC1c1nc2ccccc2s1 (stereo unspecified)
776 | COc1nn(C)cc1C(=O)Nc1ccccc1SC

The next lines start with the molecule.

Structure (SMILES) | RP-LC retention time [s]
COc1ccc(NC(=O)N2CCC(c3nc(C(=O)N(C)C)c(C)o3)CC2)c(OC)c1 | 635
CC1=NS(=O)(=O)N(Cc2ccccc2)C=C1C(=O)OCc1noc(-c2ccccc2C)n1 | 1170
COc1cc(C2=NN(C(C)=O)C(c3ccncc3)O2)cc(OC)c1OC(C)=O (stereo unspecified) | 714
COC(=O)c1nnn(-c2ccc(OC)cc2)c1C(=O)OC | 815
Cc1nc(C(=O)Nc2cc(F)ccc2F)c(C)o1 | 998
CCCn1cc(C(=O)NCC(C)C)c2nn(-c3ccccc3)c(=O)c-2c1 | 878
CC(=O)OCOC(c1ccc2ccccc2c1)P(=O)(OCOC(C)=O)OCOC(C)=O (stereo unspecified) | 854
O=c1c2sccc2n(Cc2nc(-c3cccc(C(F)(F)F)c3)no2)c(=O)n1-c1ccc(F)cc1 | 1070
COc1ccc(C(=O)CSc2nc3ccccc3[nH]2)cc1 | 647
CCC(C)C(NC(=O)c1ccc(F)c(Cl)c1)C(=O)Nc1nc2ccccc2[nH]1 (stereo unspecified) | 817
O=S(=O)(c1ccccc1F)N1CCc2nc(-c3ccc(Cl)cc3)ncc2C1 | 1190
COc1cccc(Cn2nc3c(S(=O)(=O)N4CCc5ccccc5C4)cccn3c2=O)c1 | 943
O=C(NCC1CCN(C(=O)Oc2ccccc2)CC1)c1ccsc1 | 739
Cn1cc(-c2nc(C(=O)NCc3cccs3)cs2)c2cccnc21 | 851
Cc1cc(OCC(=O)Nc2ccc(C)c(C)c2)nc(N2CCN(c3ccccc3)CC2)n1 | 911
CCCc1nc(NC(C)c2ccc(OC)c(OC)c2)ncc1C(=O)O (stereo unspecified) | 750
COc1cccc(-c2noc(CN3C(=O)COc4ccc(Cl)cc43)n2)c1 | 1070
O=C(NCc1c(F)cccc1F)C(=O)Nc1ccccc1Cl | 971
CCN(CCCNC(=O)c1nnc(-c2ccc(S(=O)(=O)N3CCCC3)cc2)o1)Cc1ccccc1 | 661

Structure (SMILES) | RP-LC retention time [s]
COC(=O)c1ccc(NC(=O)Cc2csc(Nc3ccc(F)cc3)n2)cc1 | 838
O=C(COc1ccccc1-c1nnc(-c2ccccc2)o1)Nc1ccc2c(c1)OCCO2 | 1160
O=C(NCC(F)F)c1cc2c(s1)N(CC1CC1)CCCC2 | 1000
Cc1cccc(-n2nnc(C(=O)O)c2-c2cccnc2)c1 | 650
COC(=O)c1cccc(NC(=O)N2CCC3(CC2)NC(=O)c2ccccc2O3)c1 | 736
COc1ccc(-c2nc(C)cc3nn(CC(=O)Nc4cc(C)cc(C)c4)c(=O)n23)cc1 | 906
O=S(=O)(NCCN1CCN(c2ccc(Cl)cc2)CC1)c1ccc2c(c1)OCCO2 | 620
Cc1cccc(-c2nc3ccccn3c2NC(=O)NCc2ccc(F)cc2)c1 | 714
COc1cc(NS(=O)(=O)c2ccc(N)cc2)nc(OC)n1 | 680
Fc1ccc(OCc2nc(-c3cccc(-c4ccn[nH]4)c3)no2)cc1 | 939
CCN1C(=O)CCc2cc(NS(=O)(=O)c3ccc4c(c3)OCCO4)ccc21 | 794
O=C(NCCc1cccs1)c1ccc2nc(Cc3ccccc3)oc2c1 | 949
Fc1cccc(-c2nn3c(-c4ccc5ccccc5n4)nnc3s2)c1 | 987
CCS(=O)(=O)Nc1ccc(-c2noc(-c3ccc4c(c3)OCO4)n2)cc1 | 954
COc1cccc(N2C(=O)Nc3ccccc3C2(O)C(=O)N2CCN(c3ccccn3)CC2)c1 (stereo unspecified) | 603
Cc1cc(Cl)ccc1NC(=O)CC1COc2ccccc2NC1=O (stereo unspecified) | 770
COc1ccc(-c2oc3c(CC=C(C)C)c(OC4O[C@H](CO)[C@@H](O)[C@H](O)[C@H]4O)cc(O)c3c(=O)c2OC2O[C@@H](C)[C@H](O)[C@@H](O)[C@H]2O)cc1 (stereo partly specified) | 669
CC(C)Cn1cc(CCNC(=O)c2ccccc2C(F)(F)F)c2cccnc21 | 854
CC(=O)c1cccc(NC(=O)c2ncn(-c3ccccc3)n2)c1 | 731
